Results reported in BindingDB's records for doi:10.1186/1471-2091-12-59 (Ghent University, 2011).

Key:
Heme-binding protein A [1] = biological target: T1, Heme-binding protein A (Glaesserella parasuis, UniProt B8F653); assay: Isothermal Titration Calorimetry (ITC); settings: pH 7.4; 37 °C
T1 sequence (B8F653 whole entry): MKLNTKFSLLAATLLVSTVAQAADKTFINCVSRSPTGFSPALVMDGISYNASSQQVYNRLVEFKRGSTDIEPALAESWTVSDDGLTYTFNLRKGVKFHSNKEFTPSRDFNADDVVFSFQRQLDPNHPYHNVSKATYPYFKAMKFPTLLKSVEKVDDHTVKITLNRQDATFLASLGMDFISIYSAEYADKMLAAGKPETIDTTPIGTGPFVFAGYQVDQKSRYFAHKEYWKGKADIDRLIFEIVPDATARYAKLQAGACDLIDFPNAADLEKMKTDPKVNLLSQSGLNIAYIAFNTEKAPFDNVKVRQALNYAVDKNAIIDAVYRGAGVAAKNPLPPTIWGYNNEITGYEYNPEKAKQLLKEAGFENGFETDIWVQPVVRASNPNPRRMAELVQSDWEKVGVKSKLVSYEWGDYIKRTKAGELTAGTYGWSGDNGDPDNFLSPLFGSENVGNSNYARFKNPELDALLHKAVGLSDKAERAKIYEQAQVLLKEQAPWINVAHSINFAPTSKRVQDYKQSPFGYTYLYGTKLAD
Experimental: (§1) Purified test proteins were dialyzed overnight against 10 mM Tris-HCl, pH 7.4, at 4°C. The resultant dialysis buffer was then used to dissolve the test compounds. Titrations were always preceded by an initial injection of 3 μL and were carried out using 10-μL injections applied 300 s apart. The sample was stirred at a speed of 400 rpm throughout.

Heme-binding protein A [2] = biological target: Heme-binding protein A (Actinobacillus pleuropneumoniae serovar 9 str. CVJ13261, UniProt A3N3U8); assay: Isothermal Titration Calorimetry (ITC); settings: pH 7.4; 37 °C
Chain of Heme-binding protein A (Actinobacillus pleuropneumoniae serovar 9 str. CVJ13261, UniProt A3N3U8) (A3N3U8 whole entry): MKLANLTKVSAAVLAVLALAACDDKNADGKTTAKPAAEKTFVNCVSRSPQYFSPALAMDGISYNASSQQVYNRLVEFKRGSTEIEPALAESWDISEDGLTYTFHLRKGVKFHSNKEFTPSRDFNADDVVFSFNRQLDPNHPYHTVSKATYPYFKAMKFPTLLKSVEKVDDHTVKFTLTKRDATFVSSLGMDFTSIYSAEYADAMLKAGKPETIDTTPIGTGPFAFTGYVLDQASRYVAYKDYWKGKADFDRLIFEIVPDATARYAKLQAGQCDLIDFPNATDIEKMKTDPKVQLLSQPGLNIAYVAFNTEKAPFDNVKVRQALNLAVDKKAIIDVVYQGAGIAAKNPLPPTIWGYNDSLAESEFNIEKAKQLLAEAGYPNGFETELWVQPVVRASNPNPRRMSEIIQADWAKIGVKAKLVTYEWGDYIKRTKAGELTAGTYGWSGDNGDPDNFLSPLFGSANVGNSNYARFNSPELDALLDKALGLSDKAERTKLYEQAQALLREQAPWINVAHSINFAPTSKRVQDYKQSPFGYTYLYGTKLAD
Experimental: as §1

SMILES | Kd (Heme-binding protein A [1]) [nM] | Kd (Heme-binding protein A [2]) [nM]
N[C@@H](CCC(=O)N[C@@H](CS)C(=O)NCC(=O)O)C(=O)O [GLUTATHIONE] | 1900 | 
CSC[C@H](NC(=O)CC[C@H](N)C(=O)O)C(=O)NCC(=O)O [S-methylglutathione] | 900 | 1170
